Experimental data from PubChem BioAssay (NCI).
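Each compound was tested at five concentrations against cells in 96-well plates for 48 hours. TGI: total growth inhibition.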

Tests used:
Experiment in all cases: growth of human tumour cells (NCI), 48 h
EKVX NSCLC = test system: EKVX NSCLC
HCC-2998 colon = test system: HCC-2998 colon
HOP-62 NSCLC = test system: HOP-62 NSCLC
RPMI-8226 leukemia = test system: RPMI-8226 leukemia
SF-295 CNS = test system: SF-295 CNS
ACHN renal = test system: ACHN renal
SW-620 colon = test system: SW-620 colon
OVCAR-8 ovarian = test system: OVCAR-8 ovarian
HOP-18 NSCLC = test system: HOP-18 NSCLC
UACC-257 melanoma = test system: UACC-257 melanoma
DMS 273 small cell lung = test system: DMS 273 small cell lung
SNB-78 CNS = test system: SNB-78 CNS
HCT-15 colon = test system: HCT-15 colon
OVCAR-3 ovarian = test system: OVCAR-3 ovarian
UACC-62 melanoma = test system: UACC-62 melanoma
RXF 393 renal = test system: RXF 393 renal
COLO 205 colon = test system: COLO 205 colon
SK-OV-3 ovarian = test system: SK-OV-3 ovarian
UO-31 renal = test system: UO-31 renal
M19-MEL melanoma = test system: M19-MEL melanoma
NCI-H23 lung = test system: NCI-H23 lung
MOLT-4 leukemia = test system: MOLT-4 leukemia
SK-MEL-5 melanoma = test system: SK-MEL-5 melanoma
NCI-H226 lung = test system: NCI-H226 lung
SK-MEL-2 melanoma = test system: SK-MEL-2 melanoma
U251 CNS = test system: U251 CNS
SNB-75 CNS = test system: SNB-75 CNS
K-562 leukemia = test system: K-562 leukemia
RXF-631 renal = test system: RXF-631 renal
OVCAR-4 ovarian = test system: OVCAR-4 ovarian
HL-60(TB) leukemia = test system: HL-60(TB) leukemia
M14 melanoma = test system: M14 melanoma
CCRF-CEM leukemia = test system: CCRF-CEM leukemia
SF-539 CNS = test system: SF-539 CNS
HOP-92 NSCLC = test system: HOP-92 NSCLC
KM20L2 colon = test system: KM20L2 colon
NCI-H460 lung = test system: NCI-H460 lung
SK-MEL-28 melanoma = test system: SK-MEL-28 melanoma
A549 NSCLC = test system: A549 NSCLC
HT29 colon = test system: HT29 colon
TK-10 renal = test system: TK-10 renal
SF-268 CNS = test system: SF-268 CNS
SN12C renal = test system: SN12C renal
HCT-116 colon = test system: HCT-116 colon
SNB-19 CNS = test system: SNB-19 CNS
KM12 colon = test system: KM12 colon
786-0 renal = test system: 786-0 renal
NCI-H522 lung = test system: NCI-H522 lung
A498 renal = test system: A498 renal
DMS 114 small cell lung = test system: DMS 114 small cell lung
XF 498 CNS = test system: XF 498 CNS
LOX IMVI melanoma = test system: LOX IMVI melanoma
IGROV1 ovarian = test system: IGROV1 ovarian
MALME-3M melanoma = test system: MALME-3M melanoma
OVCAR-5 ovarian = test system: OVCAR-5 ovarian
LXFL 529 NSCLC = test system: LXFL 529 NSCLC
SR leukemia = test system: SR leukemia
DLD-1 colon = test system: DLD-1 colon
CAKI-1 renal = test system: CAKI-1 renal

Measured: TGI

O=C1O[C@@H](c2ccc3c(c2)OCO3)C2C(=O)O[C@@H](c3ccc4c(c3)OCO4)C12 (some centres undefined)
not listed: MALME-3M melanoma | OVCAR-5 ovarian | LXFL 529 NSCLC | SR leukemia | DLD-1 colon | CAKI-1 renal
> 100 µM: all other assays above

COC(=O)/C(=N/NC(=O)C[N+](C)(C)C)C(C(=O)OC)C(=O)C(=O)Nc1ccc(F)cc1 (centres undefined)
not listed: OVCAR-8 ovarian | HOP-92 NSCLC | XF 498 CNS
> 100 µM: all other assays above
